Test: Research on compound microsome: prototype remaining and transformation to Atrasentan in human liver microsomes (+NADPH)
Assay type: in vitro ADME
Settings: human liver microsome (+NADPH), 37° C.
Protocol: Human liver microsomes were all purchased from Rild Liver Disease Research (Shanghai) Co., Ltd.
Reagents: dimethyl sulfoxide (DMSO), acetonitrile, formic acid, and propranolol (internal standard) are all commercially available.
Instrument: Thermo Fisher Scientific LC-MS (U300 UPLC, TSQ QUANTUMN ULTRA triple quadrupole mass spectrometer).
A certain amount of compound was precisely weighed and dissolved in DMSO to prepare a 10 mM stock solution, and the stock solution was diluted with a diluent (ACN:H2O=1:1) to a 100 μM working solution, and then diluted with a 0.1 M potassium phosphate buffer solution to a 3 μM administration solution for later use. 75 μL of liver microsomes were taken and added into 925 μL of a 0.1 M potassium phosphate buffer solution to be mixed uniformly to obtain a 1.5 mg/mL liver microsome suspension, and the liver microsome suspension was pre-incubated at 37° C. for 10 minutes. Preparation at 0 o'clock: 15 μL of the above liver microsome suspension was taken and added into a 6 mM NADPH solution, 150 μL of a propranolol acetonitrile solution was added immediately for precipitation, and then 15 μL of the above administration solution was added and mixed uniformly for later use. Preparation of samples at 20 minutes and 60 minutes: 15 μL of the administration solution was taken, 15 μL of the liver microsome suspension and 15 μL of the 6 mM NADPH solution were added and mixed uniformly, and a mixture was incubated at 37° C. for 20 minutes and 60 minutes, respectively. The preparation of the above samples was carried out using dual-pore parallel operation. When the above samples are incubated to the relevant time point, 150 μL of the propranolol acetonitrile solution was added to terminate the reaction. All the above samples were centrifuged at 4000 rpm for 5 minutes, and 100 μL of a supernatant was taken, added into 100 μL of ultrapure water and mixed uniformly for LC-MS/MS analysis. LC-MS/MS detection conditions are as follows:
Chromatographic column: Waters ACQUITY™ PREMIER HSS T3, 50*2.1 mm, 1.8 μm.
Mobile phase: water (0.1% formic acid)—acetonitrile. Perform gradient elution according to the table below.
An initial 0 o'clock was taken as 100%, a relative residual content of the drug at each time point was calculated, and each time point of Atrasentan was taken as 100% to calculate the relative amount of transformation of the compound in the embodiment to Atrasentan.

| SMILES | Prototype remaining quantity (%) Mean (time 0 min (taken as 100%)) [%] | Prototype remaining quantity (%) Mean (time 20 min) [%] | Prototype remaining quantity (%) Mean (time 60 min) [%] |
| --- | --- | --- | --- |
| CCCCN(CCCC)C(=O)CN1C[C@H](c2ccc3c(c2)OCO3)[C@@H](C(=O)O)[C@@H]1c1ccc(OC)cc1 [Atrasentan, (2R,3R,4S)-4-(benzo[d][1,3]dioxolan-5-yl)-1-[2-(dibutylamino)-2-oxoethyl]-2-(4-methoxyphenyl)pyrrolidine-3-carboxylic acid, reference compound] | 100.0 | 83.3 | 50.3 |
| CCCCN(CCCC)C(=O)CN1C[C@H](c2ccc3c(c2)OCO3)[C@@H](C(=O)OCOC(=O)OCC)[C@@H]1c1ccc(OC)cc1 [Compound 1, 1-[(ethoxycarbonyl)oxy]methyl-(2R,3R,4S)-4-(benzo[d][1,3]dioxolane-5-yl)-1-[2-(dibutylamine)-2-oxoethyl]-2-(4-methoxyphenyl)pyrrolidine-3-carboxylate] | 100.0 | 0.5 | 0.7 |
| CCCCN(CCCC)C(=O)CN1C[C@H](c2ccc3c(c2)OCO3)[C@@H](C(=O)OC(C)OC(=O)OCC)[C@@H]1c1ccc(OC)cc1 (stereo partly drawn) [Compound 2, 1-[(ethoxycarbonyl)oxy]ethyl(2R,3R,4S)-4-(benzo[d][1,3]dioxolane-5-yl)-1-[2-(dibutylamino)-2-oxoethyl]-2-(4-methoxyphenyl)pyrrolidine-3-carboxylate] | 100.0 | 67.8 | 1.6 |
| CCCCN(CCCC)C(=O)CN1C[C@H](c2ccc3c(c2)OCO3)[C@@H](C(=O)OC(C)OC(=O)OCCNC)[C@@H]1c1ccc(OC)cc1 (stereo partly drawn) [Compound 5, 1-(((2-(methylamino)ethoxy)carbonyl)oxy)ethyl-(2R,3R,4S)-4-(benzo[d][1,3]dioxolane-5-yl)-1-[2-(dibutylamino)-2-oxoethyl]-2-(4-methoxyphenyl)pyrrolidine-3-carboxylate] | 100.0 | 0 | 0 |
| CCCCN(CCCC)C(=O)CN1C[C@H](c2ccc3c(c2)OCO3)[C@@H](C(=O)OC(C)OC(=O)OC[C@@H](O)CO)[C@@H]1c1ccc(OC)cc1 (stereo partly drawn) [Compound 6, 1-((((S)-2,3-dihydroxypropoxy)carbonyl)oxy)ethyl-(2R,3R,4S)-4-(benzo[d][1,3]dioxolane-5-yl)-1-[2-(dibutylamino)-2-oxoethyl]-2-(4-methoxyphenyl)pyrrolidine-3-carboxylate] | 100.0 | 0.0 | 0.7 |
| CCCCN(CCCC)C(=O)CN1C[C@H](c2ccc3c(c2)OCO3)[C@@H](C(=O)OC(C)OC(=O)OCCO)[C@@H]1c1ccc(OC)cc1 (stereo partly drawn) [Compound 8, 1-(((2-hydroxyethoxy)carbonyl)oxy)ethyl-(2R,3R,4S)-4-(benzo[d][1,3]dioxolane-5-yl)-1-[2-(dibutylamino)-2-oxoethyl]-2-(4-methoxyphenyl)pyrrolidine-3--carboxylate] | 100.0 | 0.04 | 0.03 |
| CCCCN(CCCC)C(=O)CN1C[C@H](c2ccc3c(c2)OCO3)[C@@H](C(=O)OC(C)OC(=O)OC[C@H]2COCCO2)[C@@H]1c1ccc(OC)cc1 (stereo partly drawn) [Compound 9, 1-(((((R)-1,4-dioxane-2-yl)methoxy)carbonyl)oxy)ethyl-(2R,3R,4S)-4-(benzo[d][1,3]dioxolane-5-yl)-1-[2-(dibutylamino)-2-oxoethyl]-2-(4-methoxyphenyl)pyrrolidine-3-carboxylate] | 100.0 | 0.1 | 0.0 |
| CCCCN(CCCC)C(=O)CN1C[C@H](c2ccc3c(c2)OCO3)[C@@H](C(=O)OC(C)OC(=O)OC2COC2)[C@@H]1c1ccc(OC)cc1 (stereo partly drawn) [Compound 10, 1-((((oxetane-3-yl)oxy)carbonyl)oxy)ethyl-(2R,3R,4S)-4-(benzo[d][1,3]dioxolane-5-yl)-1-[2-(dibutylamino)-2-oxoethyl]-2-(4-methoxyphenyl)pyrrolidine-3-carboxylate] | 100.0 | 0.0 | 0.0 |
| CCCCN(CCCC)C(=O)CN1C[C@H](c2ccc3c(c2)OCO3)[C@@H](C(=O)OC(C)OC(=O)OC[C@@H]2COCCO2)[C@@H]1c1ccc(OC)cc1 (stereo partly drawn) [Compound 11, 1-(((((S)-1,4-dioxane-2-yl)methoxy)carbonyl)oxy)ethyl-(2R,3R,4S)-4-(benzo[d][1,3]dioxolane-5-yl)-1-[2-(dibutylamino)-2-oxoethyl]-2-(4-methoxyphenyl)pyrrolidine-3-carboxylate] | 100.0 | 0.5 | 0.0 |

Source: US20250320198A1, “SALT OF ENDOTHELIN A (ETA) RECEPTOR ANTAGONIST COMPOUND, AND PREPARATION METHOD THEREFOR AND MEDICAL USE THEREOF” (SHENZHEN SALUBRIS PHARMACEUTICALS CO., LTD, priority 2022, published 2025)
